# Article PMC12300041, “Tricyclic Isatin Derivatives as Anti-Inflammatory Compounds with High Kinase Binding Affinity” (Molecules, 2025)
# Columns and labels:
# Experiment in all cases: KINOMEscan
# Type in all cases: binding
# MUSK = molecular target: T1, MUSK (Homo sapiens, UniProt O15146)
# T1 construct: purchased Eurofins DiscoverX KINOMEscan
# Outline: (§1)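 Kd determination: 12-pt half-log series, top 33 μM; 1 h binding, RT; unbound kinase pulled down on immobilized ligand, measured by qPCR.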
# LTK = molecular target: T2, LTK (Homo sapiens, UniProt P29376)
# T2 construct: purchased Eurofins DiscoverX KINOMEscan
# Outline: as §1
# TAOK2 = molecular target: T3, TAOK2 (Homo sapiens, UniProt Q9UL54)
# T3 construct: purchased Eurofins DiscoverX KINOMEscan
# T3 sequence (Q9UL54 whole entry): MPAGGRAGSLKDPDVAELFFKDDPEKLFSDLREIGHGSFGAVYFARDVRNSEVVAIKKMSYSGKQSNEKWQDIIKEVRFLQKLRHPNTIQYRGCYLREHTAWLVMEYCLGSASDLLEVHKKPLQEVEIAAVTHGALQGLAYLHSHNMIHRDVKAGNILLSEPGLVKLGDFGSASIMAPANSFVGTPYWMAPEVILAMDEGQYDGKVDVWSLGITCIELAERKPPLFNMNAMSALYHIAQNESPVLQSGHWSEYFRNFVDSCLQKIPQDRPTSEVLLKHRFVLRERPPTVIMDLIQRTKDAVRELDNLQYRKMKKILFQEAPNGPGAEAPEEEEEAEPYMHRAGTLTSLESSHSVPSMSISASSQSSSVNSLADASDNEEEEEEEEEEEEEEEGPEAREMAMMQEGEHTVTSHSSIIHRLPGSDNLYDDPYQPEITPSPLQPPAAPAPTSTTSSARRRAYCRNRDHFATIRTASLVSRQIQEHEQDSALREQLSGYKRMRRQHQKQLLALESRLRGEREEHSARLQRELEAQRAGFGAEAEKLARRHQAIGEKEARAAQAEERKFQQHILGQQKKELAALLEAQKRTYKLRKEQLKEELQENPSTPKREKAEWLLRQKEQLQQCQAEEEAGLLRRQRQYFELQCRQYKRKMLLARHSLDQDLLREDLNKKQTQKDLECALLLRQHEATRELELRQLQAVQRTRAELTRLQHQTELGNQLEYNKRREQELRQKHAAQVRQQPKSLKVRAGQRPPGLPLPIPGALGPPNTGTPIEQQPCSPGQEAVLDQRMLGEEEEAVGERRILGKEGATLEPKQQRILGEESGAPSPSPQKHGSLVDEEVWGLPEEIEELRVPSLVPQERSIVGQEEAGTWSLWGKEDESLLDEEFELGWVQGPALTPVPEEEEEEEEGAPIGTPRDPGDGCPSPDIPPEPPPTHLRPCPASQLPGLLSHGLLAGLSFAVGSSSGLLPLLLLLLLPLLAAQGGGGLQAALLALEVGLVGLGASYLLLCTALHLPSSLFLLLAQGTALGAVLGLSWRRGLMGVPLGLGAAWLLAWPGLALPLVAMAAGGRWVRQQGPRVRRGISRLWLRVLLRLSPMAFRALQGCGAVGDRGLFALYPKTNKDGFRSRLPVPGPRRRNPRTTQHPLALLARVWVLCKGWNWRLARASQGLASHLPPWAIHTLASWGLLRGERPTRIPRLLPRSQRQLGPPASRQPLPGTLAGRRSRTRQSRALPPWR
# Outline: as §1
# ACVRL1 = molecular target: T4, ACVRL1 (Homo sapiens, UniProt P37023)
# T4 construct: purchased Eurofins DiscoverX KINOMEscan
# Outline: as §1
# TAOK3 = molecular target: T5, TAOK3 (Homo sapiens, UniProt Q9H2K8)
# T5 construct: purchased Eurofins DiscoverX KINOMEscan
# Outline: as §1
# CDKL2 = molecular target: T6, CDKL2 (Homo sapiens, UniProt Q92772)
# T6 construct: purchased Eurofins DiscoverX KINOMEscan
# T6 sequence (Q92772 whole entry): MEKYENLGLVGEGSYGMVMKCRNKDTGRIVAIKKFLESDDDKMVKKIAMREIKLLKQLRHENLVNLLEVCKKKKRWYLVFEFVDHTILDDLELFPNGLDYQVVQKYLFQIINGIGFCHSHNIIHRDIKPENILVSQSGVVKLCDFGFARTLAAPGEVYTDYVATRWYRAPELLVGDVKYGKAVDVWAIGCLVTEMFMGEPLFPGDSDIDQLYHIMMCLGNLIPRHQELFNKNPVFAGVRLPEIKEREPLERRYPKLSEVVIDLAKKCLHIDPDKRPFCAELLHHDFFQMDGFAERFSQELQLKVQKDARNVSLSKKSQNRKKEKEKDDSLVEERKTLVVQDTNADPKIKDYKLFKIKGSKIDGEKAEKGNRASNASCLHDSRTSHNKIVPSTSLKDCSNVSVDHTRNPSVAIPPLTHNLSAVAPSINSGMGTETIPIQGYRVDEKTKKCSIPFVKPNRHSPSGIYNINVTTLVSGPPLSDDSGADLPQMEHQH
# Outline: as §1
# MINK = molecular target: T7, MINK (Homo sapiens, UniProt Q8N4C8)
# T7 construct: purchased Eurofins DiscoverX KINOMEscan
# Outline: as §1
# ABL1 (E255K)-P = molecular target: T8, ABL1 (E255K)-P (Homo sapiens, UniProt P00519, E255K)
# T8 construct: purchased Eurofins DiscoverX KINOMEscan
# Outline: as §1
# PRKX = molecular target: T9, PRKX (Homo sapiens, UniProt P51817)
# T9 construct: purchased Eurofins DiscoverX KINOMEscan
# Outline: as §1
# FLT3 (D835V) = molecular target: T10, FLT3 (D835V) (Homo sapiens, UniProt P36888, D835V)
# T10 construct: purchased Eurofins DiscoverX KINOMEscan
# Outline: as §1
# NEK1 = molecular target: T11, NEK1 (Homo sapiens, UniProt Q96PY6)
# T11 construct: purchased Eurofins DiscoverX KINOMEscan
# Outline: as §1
# FLT3 (K663Q) = molecular target: T12, FLT3 (K663Q) (Homo sapiens, UniProt P36888, K663Q)
# T12 construct: purchased Eurofins DiscoverX KINOMEscan
# Outline: as §1
# PIM3 = molecular target: T13, PIM3 (Homo sapiens, UniProt Q86V86)
# T13 construct: purchased Eurofins DiscoverX KINOMEscan
# Outline: as §1
# EPHA8 = molecular target: T14, EPHA8 (Homo sapiens, UniProt P29322)
# T14 construct: purchased Eurofins DiscoverX KINOMEscan
# Outline: as §1
# YANK1 = molecular target: T15, YANK1 (Homo sapiens, UniProt Q8WU08)
# T15 construct: purchased Eurofins DiscoverX KINOMEscan
# T15 sequence (Q8WU08 whole entry): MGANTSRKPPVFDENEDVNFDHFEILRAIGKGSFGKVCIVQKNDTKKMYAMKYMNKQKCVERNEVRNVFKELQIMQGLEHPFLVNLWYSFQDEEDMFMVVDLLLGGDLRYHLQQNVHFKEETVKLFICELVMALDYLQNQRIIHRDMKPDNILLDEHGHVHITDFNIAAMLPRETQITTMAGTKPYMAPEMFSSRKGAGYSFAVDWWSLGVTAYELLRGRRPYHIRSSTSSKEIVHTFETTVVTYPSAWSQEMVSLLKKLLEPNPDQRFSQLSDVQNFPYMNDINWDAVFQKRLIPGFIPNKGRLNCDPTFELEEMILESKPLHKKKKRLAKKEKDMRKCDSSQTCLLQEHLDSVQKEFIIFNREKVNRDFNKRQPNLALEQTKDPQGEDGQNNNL
# Outline: as §1
# CSF1R = molecular target: T16, CSF1R (Homo sapiens, UniProt P07333)
# T16 construct: purchased Eurofins DiscoverX KINOMEscan
# T16 sequence (P07333 20-972): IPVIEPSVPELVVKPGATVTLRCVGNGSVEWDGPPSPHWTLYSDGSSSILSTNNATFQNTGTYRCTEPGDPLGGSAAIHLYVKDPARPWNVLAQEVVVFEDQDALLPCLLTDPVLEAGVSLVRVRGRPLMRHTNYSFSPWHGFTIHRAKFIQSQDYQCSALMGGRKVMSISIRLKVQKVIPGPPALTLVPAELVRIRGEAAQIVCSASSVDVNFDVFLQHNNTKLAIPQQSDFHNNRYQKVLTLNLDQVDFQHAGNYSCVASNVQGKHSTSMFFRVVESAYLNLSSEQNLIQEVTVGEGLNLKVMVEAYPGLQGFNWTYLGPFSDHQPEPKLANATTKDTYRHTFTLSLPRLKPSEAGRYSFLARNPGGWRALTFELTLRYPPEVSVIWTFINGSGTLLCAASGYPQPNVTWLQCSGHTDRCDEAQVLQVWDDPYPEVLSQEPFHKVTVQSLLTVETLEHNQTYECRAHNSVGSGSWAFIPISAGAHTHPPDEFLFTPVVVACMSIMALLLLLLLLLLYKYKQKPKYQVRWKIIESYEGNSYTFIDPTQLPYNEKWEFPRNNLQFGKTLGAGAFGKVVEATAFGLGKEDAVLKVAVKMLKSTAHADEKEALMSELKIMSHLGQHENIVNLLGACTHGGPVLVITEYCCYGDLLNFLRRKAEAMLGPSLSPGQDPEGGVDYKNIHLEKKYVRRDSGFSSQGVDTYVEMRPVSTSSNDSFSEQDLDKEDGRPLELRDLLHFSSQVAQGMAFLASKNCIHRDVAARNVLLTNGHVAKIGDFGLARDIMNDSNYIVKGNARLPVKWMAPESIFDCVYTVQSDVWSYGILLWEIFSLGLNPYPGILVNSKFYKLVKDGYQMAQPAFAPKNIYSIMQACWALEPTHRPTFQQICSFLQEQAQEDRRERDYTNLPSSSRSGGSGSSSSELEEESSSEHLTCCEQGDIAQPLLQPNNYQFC
# Outline: as §1
# EPHB3 = molecular target: T17, EPHB3 (Homo sapiens, UniProt P54753)
# T17 construct: purchased Eurofins DiscoverX KINOMEscan
# T17 sequence (P54753 34-998): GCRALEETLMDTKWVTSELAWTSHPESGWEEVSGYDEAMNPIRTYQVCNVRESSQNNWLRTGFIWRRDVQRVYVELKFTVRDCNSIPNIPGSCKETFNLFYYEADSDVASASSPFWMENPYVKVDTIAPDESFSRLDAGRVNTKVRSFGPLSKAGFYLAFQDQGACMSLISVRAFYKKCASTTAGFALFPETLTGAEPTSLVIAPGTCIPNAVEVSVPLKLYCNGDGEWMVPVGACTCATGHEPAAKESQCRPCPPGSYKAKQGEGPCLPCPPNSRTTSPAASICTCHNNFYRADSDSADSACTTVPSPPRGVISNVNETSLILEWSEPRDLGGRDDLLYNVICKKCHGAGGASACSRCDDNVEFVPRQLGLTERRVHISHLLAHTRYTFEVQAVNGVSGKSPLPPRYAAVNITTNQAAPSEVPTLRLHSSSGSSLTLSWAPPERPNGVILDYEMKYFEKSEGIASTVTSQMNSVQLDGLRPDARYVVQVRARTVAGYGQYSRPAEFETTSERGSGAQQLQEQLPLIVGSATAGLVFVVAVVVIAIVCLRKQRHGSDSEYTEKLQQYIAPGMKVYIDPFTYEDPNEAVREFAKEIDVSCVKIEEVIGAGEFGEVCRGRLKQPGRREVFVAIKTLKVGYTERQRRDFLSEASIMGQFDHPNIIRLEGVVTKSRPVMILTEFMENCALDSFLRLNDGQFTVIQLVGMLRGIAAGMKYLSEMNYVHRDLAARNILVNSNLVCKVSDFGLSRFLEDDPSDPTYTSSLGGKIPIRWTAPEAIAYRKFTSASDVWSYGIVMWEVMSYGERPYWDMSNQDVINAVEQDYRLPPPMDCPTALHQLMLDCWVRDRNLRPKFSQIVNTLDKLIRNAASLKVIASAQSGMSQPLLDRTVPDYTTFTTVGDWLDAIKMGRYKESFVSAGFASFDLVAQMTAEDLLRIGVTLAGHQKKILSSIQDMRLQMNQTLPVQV
# Outline: as §1
# SYK = molecular target: T18, SYK (Homo sapiens, UniProt P43405)
# T18 construct: purchased Eurofins DiscoverX KINOMEscan
# Outline: as §1
# PAK1 = molecular target: T19, PAK1 (Homo sapiens, UniProt Q13153)
# T19 construct: purchased Eurofins DiscoverX KINOMEscan
# Outline: as §1
# ADCK3 = molecular target: T20, ADCK3 (Homo sapiens, UniProt Q8NI60)
# T20 construct: purchased Eurofins DiscoverX KINOMEscan
# Outline: as §1
# ITK = molecular target: T21, ITK (Homo sapiens, UniProt Q08881)
# T21 construct: purchased Eurofins DiscoverX KINOMEscan
# Outline: as §1
# DYRK2 = molecular target: T22, DYRK2 (Homo sapiens, UniProt Q92630)
# T22 construct: purchased Eurofins DiscoverX KINOMEscan
# Outline: as §1
# PIK3CA (Q546K) = molecular target: T23, PIK3CA (Q546K) (Homo sapiens, UniProt P42336, Q546K)
# T23 construct: purchased Eurofins DiscoverX KINOMEscan
# Outline: as §1
# TAK1 = molecular target: T24, TAK1 (Homo sapiens, UniProt O43318)
# T24 construct: purchased Eurofins DiscoverX KINOMEscan
# Outline: as §1
# FLT3 (N841I) = molecular target: T25, FLT3 (N841I) (Homo sapiens, UniProt P36888, N841I)
# T25 construct: purchased Eurofins DiscoverX KINOMEscan
# Outline: as §1
# PIP5K1A = molecular target: T26, PIP5K1A (Homo sapiens, UniProt Q99755)
# T26 construct: purchased Eurofins DiscoverX KINOMEscan
# Outline: as §1
# PAK6 = molecular target: T27, PAK6 (Homo sapiens, UniProt Q9NQU5)
# T27 construct: purchased Eurofins DiscoverX KINOMEscan
# Outline: as §1
# LIMK2 = molecular target: T28, LIMK2 (Homo sapiens, UniProt P53671)
# T28 construct: purchased Eurofins DiscoverX KINOMEscan
# Outline: as §1
# BMPR1B = molecular target: T29, BMPR1B (Homo sapiens, UniProt O00238)
# T29 construct: purchased Eurofins DiscoverX KINOMEscan
# Outline: as §1
# TNIK = molecular target: T30, TNIK (Homo sapiens, UniProt Q9UKE5)
# T30 construct: purchased Eurofins DiscoverX KINOMEscan
# Outline: as §1
# CSNK1D = molecular target: T31, CSNK1D (Homo sapiens, UniProt P48730)
# T31 construct: purchased Eurofins DiscoverX KINOMEscan
# Outline: as §1
# PAK4 = molecular target: T32, PAK4 (Homo sapiens, UniProt O96013)
# T32 construct: purchased Eurofins DiscoverX KINOMEscan
# Outline: as §1
# RET (V804M) = molecular target: T33, RET (V804M) (Homo sapiens, UniProt P07949, V804M)
# T33 construct: purchased Eurofins DiscoverX KINOMEscan
# Outline: as §1
# [1] = molecular target: T34, RSK2 (Kin. Dom.1-N-term.) (Homo sapiens, UniProt P51812)
# T34 construct: RSK2 (Kin. Dom.1-N-term.); purchased Eurofins DiscoverX KINOMEscan
# Outline: as §1
# WEE1 = molecular target: T35, WEE1 (Homo sapiens, UniProt P30291)
# T35 construct: purchased Eurofins DiscoverX KINOMEscan
# T35 sequence (P30291 whole entry): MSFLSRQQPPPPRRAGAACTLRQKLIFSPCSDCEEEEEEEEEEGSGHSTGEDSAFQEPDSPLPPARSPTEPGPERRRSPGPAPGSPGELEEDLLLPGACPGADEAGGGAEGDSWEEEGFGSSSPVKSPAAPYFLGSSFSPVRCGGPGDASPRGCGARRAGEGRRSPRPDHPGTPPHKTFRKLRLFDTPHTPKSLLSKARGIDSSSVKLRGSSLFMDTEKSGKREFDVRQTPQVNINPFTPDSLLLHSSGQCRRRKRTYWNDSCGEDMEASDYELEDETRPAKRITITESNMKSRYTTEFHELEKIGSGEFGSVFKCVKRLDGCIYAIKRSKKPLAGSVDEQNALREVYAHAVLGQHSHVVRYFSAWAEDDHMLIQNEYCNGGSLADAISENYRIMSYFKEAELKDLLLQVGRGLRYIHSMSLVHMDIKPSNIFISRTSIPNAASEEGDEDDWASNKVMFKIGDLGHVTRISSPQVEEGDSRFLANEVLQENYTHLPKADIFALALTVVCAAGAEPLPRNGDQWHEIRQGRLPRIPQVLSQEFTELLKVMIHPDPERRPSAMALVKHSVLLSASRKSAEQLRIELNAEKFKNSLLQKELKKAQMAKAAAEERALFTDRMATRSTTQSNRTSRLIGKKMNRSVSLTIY
# Outline: as §1
# FGR = molecular target: T36, FGR (Homo sapiens, UniProt P09769)
# T36 construct: purchased Eurofins DiscoverX KINOMEscan
# Outline: as §1
# SNARK = molecular target: T37, SNARK (Homo sapiens, UniProt Q9H093)
# T37 construct: purchased Eurofins DiscoverX KINOMEscan
# Outline: as §1
# NEK9 = molecular target: T38, NEK9 (Homo sapiens, UniProt Q8TD19)
# T38 construct: purchased Eurofins DiscoverX KINOMEscan
# Outline: as §1
# CDK11 = molecular target: T39, CDK11 (Homo sapiens, UniProt Q9BWU1)
# T39 construct: purchased Eurofins DiscoverX KINOMEscan
# Outline: as §1
smiles,measurement,setting,value
"O=C1Nc2c(cc([N+](=O)[O-])c3c2CCCC3)C1=NO [Compound 5d, 3-(Hydroxyimino)-5-nitro-1,3,6,7,8,9-hexahydro-2H-benzo[g]indol-2-one]",inhibition at 10 µM,MUSK,0%
same,inhibition at 10 µM,LTK,64%
same,inhibition at 10 µM,TAOK2,37%
same,inhibition at 10 µM,ACVRL1,0%
same,inhibition at 10 µM,TAOK3,65%
same,inhibition at 10 µM,CDKL2,13%
same,inhibition at 10 µM,MINK,70%
same,inhibition at 10 µM,ABL1 (E255K)-P,57%
same,inhibition at 10 µM,PRKX,0%
same,inhibition at 10 µM,FLT3 (D835V),72%
same,inhibition at 10 µM,NEK1,31%
same,inhibition at 10 µM,FLT3 (K663Q),5%
same,inhibition at 10 µM,PIM3,95.8%
same,inhibition at 10 µM,EPHA8,0%
same,inhibition at 10 µM,YANK1,11%
same,inhibition at 10 µM,CSF1R,0%
same,inhibition at 10 µM,EPHB3,0%
same,inhibition at 10 µM,SYK,20%
same,inhibition at 10 µM,PAK1,0%
same,inhibition at 10 µM,ADCK3,12%
same,inhibition at 10 µM,ITK,0%
same,inhibition at 10 µM,DYRK2,81%
same,inhibition at 10 µM,PIK3CA (Q546K),40%
same,inhibition at 10 µM,TAK1,67%
same,inhibition at 10 µM,FLT3 (N841I),0%
same,inhibition at 10 µM,PIP5K1A,54%
same,inhibition at 10 µM,PAK6,39%
same,inhibition at 10 µM,LIMK2,0%
same,inhibition at 10 µM,BMPR1B,19%
same,inhibition at 10 µM,TNIK,65%
same,inhibition at 10 µM,CSNK1D,79%
same,inhibition at 10 µM,PAK4,43%
same,inhibition at 10 µM,RET (V804M),4%
same,inhibition at 10 µM,[1],81%
same,inhibition at 10 µM,WEE1,16%
same,inhibition at 10 µM,FGR,0%
same,inhibition at 10 µM,SNARK,90%
same,inhibition at 10 µM,NEK9,32%
same,inhibition at 10 µM,CDK11,1%
